Article PMC8151276, “An Integrated Approach toward NanoBRET Tracers for Analysis of GPCR Ligand Engagement” (Molecules, 2021)

Columns and labels:
Format in all cases: binding
GABBR1 = target: T1, GABBR1 (Homo sapiens, UniProt Q9UBS5); assay: NanoBRET screen HiBiT-GABBR1 in HEK293
T1 construct: purchased Promega (in-house HiBiT-GPCR construct library, NanoBRET)
Experimental: (§1) Each tracer candidate was screened across the entire library of HiBiT-GPCR constructs using NanoBRET as the detection modality. As depicted in Figure 4A, the specificity of interactions was evaluated through decrease in BRET due to competitive displacement of a bound tracer by excess parental compound. Each tracer was analyzed for binding to each HiBiT-GPCR fusion in the absence and in the presence of competing parental compound. Briefly, HEK293 cells were transfected with HiBiT-GPCR constructs diluted into promoterless DNA to reduce expression and maximize translocation to the cell surface. Each tracer candidate was then screened at concentrations of 1 μM and 0.1 μM across cells expressing these fusions. Cells were treated for 1.5 h with tracer either alone or in the presence of 20 μM competing parental compound (i.e., control). BRET was measured upon addition of purified LgBiT and subsequent complementation with HiBiT genetically fused to a GPCR. The specificity of interactions was assessed through a decrease in BRET signal due to competitive displacement of the bound tracer. To further gauge the robustness of these interactions, the fold response over the control (i.e., BRETtracer/BRETcontrol) was calculated. We chose a 1.5-fold response, which translates to ≥7-fold signal over noise as the minimal threshold required to score an interaction as positive. […]. Below we highlight the screening results obtained for our exemplary fluorescent tracers based on Clozapine, Amitriptyline and AZD1283.
(§2) HiBiT-GPCR DNA constructs were diluted in 10 mM Tris pH 8 to a final concentration of 0.01 μg/μL, arrayed in 96-well plates and stored at −20 °C. For transfection, HEK293 cells were suspended in Opti-MEM (without phenol red) supplemented with 2% fetal bovine serum (Seradigm) and 100 units/mL penicillin–streptomycin (Gibco) at a final concentration of 220,000 cells/mL and dispensed into white 96-well plates at 90 μL/well. Subsequent transfections and screens were carried using an Agilent Bravo Automated Liquid Handling Platform. First, the 96-well HiBiT DNA arrays were diluted 25-fold in Opti-MEM (without serum or phenol red) to a final concentration of 0.0004 μg/μL and 20 μL of the diluted DNAs were transferred into new 96-well plates. Next, promoterless carrier DNA (1 μg/μL) was diluted 25-fold (0.04 μg/μL) and then dispensed into the diluted arrays at 20 μL/well. Following brief mixing, Viafect transfection reagent (Promega) diluted 16-fold into Opti-MEM was dispensed into the plates at 40 μL/well. After mixing by pipetting, plates were incubated for 10 min on the pipetting station deck. The DNA-transfection reagent complexes were then added to plates containing cells. To facilitate the screen, 10 μL of DNA-transfection reagent complexes were added in duplicates to the top 4 and bottom 4 rows, resulting in two identical 48-well arrays per plate. Plates with transfected cells were incubated for 18–20 h at 37 °C/5% CO2. A screen of each tracer across the entire library using two different concentrations requires duplicate plates of transfected cells. Depending on the number of tracers being screened, transfections can be scaled up using the same ratios. The next day, for each tracer, four 20× screening solutions in tracer dilution buffer (Promega) were prepared: two duplicates at final concentration of 20 μM and two duplicates at a final concentration of 2 μM. A competing unmodified compound was added to one of each duplicate at a final concentration of 400 μM. The four resulting solutions were diluted 4-fold in Opti-MEM without serum or phenol red to generate 5× solutions (5 µM and 0.5 µM tracer +/− 100 μM competing compound). To screen the library, a BioTek MultiFlo FX liquid dispenser was used to dispense 22.5 µL of tracer solution to the top 4 rows and 22.5 µL tracer + competing compound solution to the 4 bottom rows. Plates were briefly mixed on an orbital shaker and incubated for 1.5 h at room temperature. […]

F2R = target: T2, F2R (Homo sapiens, UniProt P25116); assay: NanoBRET screen HiBiT-F2R in HEK293
T2 construct: purchased Promega (in-house HiBiT-GPCR construct library, NanoBRET)
T2 sequence (P25116 22-425): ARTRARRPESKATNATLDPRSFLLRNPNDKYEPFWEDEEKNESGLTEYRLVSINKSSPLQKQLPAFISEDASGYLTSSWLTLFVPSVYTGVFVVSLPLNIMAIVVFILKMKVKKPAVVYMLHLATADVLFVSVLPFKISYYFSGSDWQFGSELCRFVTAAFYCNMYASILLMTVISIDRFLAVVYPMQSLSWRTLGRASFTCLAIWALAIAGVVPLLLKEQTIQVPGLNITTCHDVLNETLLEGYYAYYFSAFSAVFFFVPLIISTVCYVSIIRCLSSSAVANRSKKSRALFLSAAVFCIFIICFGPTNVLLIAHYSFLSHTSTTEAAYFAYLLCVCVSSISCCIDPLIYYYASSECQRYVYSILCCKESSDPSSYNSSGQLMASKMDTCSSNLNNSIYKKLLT
Experimental: as §1, §2

HCRTR2 = target: T3, HCRTR2 (Homo sapiens, UniProt O43614); assay: NanoBRET screen HiBiT-HCRTR2 in HEK293
T3 construct: purchased Promega (in-house HiBiT-GPCR construct library, NanoBRET)
T3 sequence (O43614 1-444): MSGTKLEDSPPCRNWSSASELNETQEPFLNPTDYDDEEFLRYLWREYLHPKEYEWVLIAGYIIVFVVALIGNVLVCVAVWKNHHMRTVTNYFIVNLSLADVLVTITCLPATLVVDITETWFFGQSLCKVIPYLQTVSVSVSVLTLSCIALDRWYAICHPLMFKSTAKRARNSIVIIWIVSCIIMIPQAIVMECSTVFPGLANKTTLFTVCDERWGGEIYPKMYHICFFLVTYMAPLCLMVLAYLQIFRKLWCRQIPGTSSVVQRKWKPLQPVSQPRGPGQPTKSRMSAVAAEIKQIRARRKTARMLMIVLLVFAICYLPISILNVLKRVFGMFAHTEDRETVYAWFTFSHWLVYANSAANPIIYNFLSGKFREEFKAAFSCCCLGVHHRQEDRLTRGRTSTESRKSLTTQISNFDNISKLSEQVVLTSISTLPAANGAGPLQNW
Experimental: as §1, §2

NPBWR2 = target: T4, NPBWR2 (Homo sapiens, UniProt P48146); assay: NanoBRET screen HiBiT-NPBWR2 in HEK293; details: NPBWR2
T4 construct: purchased Promega (in-house HiBiT-GPCR construct library, NanoBRET)
Experimental: as §1, §2

PTGER2 = target: T5, PTGER2 (Homo sapiens, UniProt P43116); assay: NanoBRET screen HiBiT-PTGER2 in HEK293; details: PTGER2
T5 construct: purchased Promega (in-house HiBiT-GPCR construct library, NanoBRET)
Experimental: as §1, §2

HRH2 = target: T6, HRH2 (Homo sapiens, UniProt P25021); assay: NanoBRET screen HiBiT-HRH2 in HEK293
T6 construct: purchased Promega (in-house HiBiT-GPCR construct library, NanoBRET)
Experimental: as §1, §2

CXCR4 = target: T7, CXCR4 (Homo sapiens, UniProt P61073); assay: NanoBRET screen HiBiT-CXCR4 in HEK293
T7 construct: purchased Promega (in-house HiBiT-GPCR construct library, NanoBRET)
Experimental: as §1, §2

T1 sequence (Q9UBS5 15-961 limits assumed): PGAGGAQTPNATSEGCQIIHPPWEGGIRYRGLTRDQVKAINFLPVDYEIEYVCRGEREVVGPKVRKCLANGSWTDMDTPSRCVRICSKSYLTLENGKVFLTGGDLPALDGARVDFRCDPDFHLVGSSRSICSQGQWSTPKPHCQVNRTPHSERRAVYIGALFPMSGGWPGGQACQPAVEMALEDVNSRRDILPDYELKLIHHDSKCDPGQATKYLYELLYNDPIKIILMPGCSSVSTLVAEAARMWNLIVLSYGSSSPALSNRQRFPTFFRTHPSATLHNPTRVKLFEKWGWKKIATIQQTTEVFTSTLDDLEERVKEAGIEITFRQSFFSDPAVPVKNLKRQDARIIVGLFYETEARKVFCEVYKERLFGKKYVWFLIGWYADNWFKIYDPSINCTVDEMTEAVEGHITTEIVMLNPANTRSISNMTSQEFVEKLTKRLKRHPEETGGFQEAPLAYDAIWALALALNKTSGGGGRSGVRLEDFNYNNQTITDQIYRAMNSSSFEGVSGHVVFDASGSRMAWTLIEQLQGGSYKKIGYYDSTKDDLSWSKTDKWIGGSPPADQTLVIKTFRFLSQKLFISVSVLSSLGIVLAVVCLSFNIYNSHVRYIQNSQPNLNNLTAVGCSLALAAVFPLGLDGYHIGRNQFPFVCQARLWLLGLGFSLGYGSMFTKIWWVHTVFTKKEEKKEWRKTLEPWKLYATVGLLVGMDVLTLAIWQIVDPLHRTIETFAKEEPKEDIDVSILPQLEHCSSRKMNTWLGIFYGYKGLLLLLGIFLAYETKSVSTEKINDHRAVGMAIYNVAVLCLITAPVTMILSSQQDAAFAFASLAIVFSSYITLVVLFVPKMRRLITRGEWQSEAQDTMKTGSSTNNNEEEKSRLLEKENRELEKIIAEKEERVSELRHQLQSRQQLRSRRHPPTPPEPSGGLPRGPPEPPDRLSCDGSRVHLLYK
T4 sequence (P48146 whole entry): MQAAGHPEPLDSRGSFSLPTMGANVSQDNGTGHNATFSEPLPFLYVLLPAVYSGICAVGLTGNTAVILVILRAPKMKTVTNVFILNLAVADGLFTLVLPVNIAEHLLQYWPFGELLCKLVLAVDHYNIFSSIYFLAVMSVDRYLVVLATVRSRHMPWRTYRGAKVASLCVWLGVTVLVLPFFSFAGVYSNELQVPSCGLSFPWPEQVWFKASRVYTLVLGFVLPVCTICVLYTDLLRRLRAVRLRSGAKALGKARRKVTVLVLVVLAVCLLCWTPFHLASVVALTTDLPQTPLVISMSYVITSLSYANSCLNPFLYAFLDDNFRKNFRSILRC
T6 sequence (P25021 whole entry): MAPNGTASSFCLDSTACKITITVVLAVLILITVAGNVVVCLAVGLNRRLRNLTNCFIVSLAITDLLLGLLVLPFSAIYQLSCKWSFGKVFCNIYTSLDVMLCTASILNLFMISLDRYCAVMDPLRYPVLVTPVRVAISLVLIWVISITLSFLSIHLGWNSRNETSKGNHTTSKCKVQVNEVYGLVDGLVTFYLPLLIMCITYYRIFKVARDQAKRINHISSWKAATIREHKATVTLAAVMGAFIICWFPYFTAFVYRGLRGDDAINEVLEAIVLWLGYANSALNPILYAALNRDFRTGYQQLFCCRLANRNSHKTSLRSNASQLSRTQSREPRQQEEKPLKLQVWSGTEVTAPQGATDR
T7 sequence (P61073 whole entry): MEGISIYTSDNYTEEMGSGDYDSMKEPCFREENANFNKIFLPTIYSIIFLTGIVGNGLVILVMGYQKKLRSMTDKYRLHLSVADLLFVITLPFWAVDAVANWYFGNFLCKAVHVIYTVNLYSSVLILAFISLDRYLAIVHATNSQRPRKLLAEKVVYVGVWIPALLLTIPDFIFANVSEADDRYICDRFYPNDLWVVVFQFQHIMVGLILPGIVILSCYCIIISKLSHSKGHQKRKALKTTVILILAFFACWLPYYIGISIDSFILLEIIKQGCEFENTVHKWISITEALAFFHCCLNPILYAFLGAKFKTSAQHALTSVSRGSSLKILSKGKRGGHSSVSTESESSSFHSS
T5 sequence (P43116 whole entry): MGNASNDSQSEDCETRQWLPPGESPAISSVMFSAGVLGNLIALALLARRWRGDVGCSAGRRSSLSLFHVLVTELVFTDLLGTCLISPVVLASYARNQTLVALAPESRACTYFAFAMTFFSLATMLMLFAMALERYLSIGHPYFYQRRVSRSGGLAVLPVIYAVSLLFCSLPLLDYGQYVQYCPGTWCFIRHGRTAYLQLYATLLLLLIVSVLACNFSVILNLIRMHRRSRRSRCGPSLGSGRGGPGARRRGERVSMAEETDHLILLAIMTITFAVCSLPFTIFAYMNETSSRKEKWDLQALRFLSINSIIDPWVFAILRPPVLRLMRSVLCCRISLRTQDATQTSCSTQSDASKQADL

CC(C)N(CC[C@H](c1ccccc1)c1cc(CCNC(=O)c2ccc(CNC(=O)CCc3ccc4n3[B-](F)(F)[N+]3=C(c5ccc[nH]5)C=CC3=C4)cc2)ccc1O)C(C)C [Tolterodine-BZ-NB590]
NanoBRET Fold Response (GABBR1; GABBR1, tracer 0.1μM): 0.92
NanoBRET Fold Response (GABBR1; GABBR1, tracer 1μM): 0.87
NanoBRET Fold Response (F2R; F2R, tracer 0.1μM): 1.09
NanoBRET Fold Response (F2R; F2R, tracer 1μM): 0.85
NanoBRET Fold Response (HCRTR2; HCRTR2, tracer 0.1μM): 0.91
NanoBRET Fold Response (HCRTR2; HCRTR2, tracer 1μM): 1.06
NanoBRET Fold Response (NPBWR2; tracer 0.1μM): 0.96
NanoBRET Fold Response (NPBWR2; tracer 1μM): 1.06
NanoBRET Fold Response (PTGER2; tracer 0.1μM): 1.04
NanoBRET Fold Response (PTGER2; tracer 1μM): 0.97
NanoBRET Fold Response (HRH2; HRH2, tracer 0.1μM): 1.05
NanoBRET Fold Response (HRH2; HRH2, tracer 1μM): 0.87
NanoBRET Fold Response (CXCR4; CXCR4, tracer 0.1μM): 0.94
NanoBRET Fold Response (CXCR4; CXCR4, tracer 1μM): 1.03

O=C(CCOCCOCCOCCOCCNC(=O)CCc1ccc2n1[B-](F)(F)[N+]1=C(c3ccc[nH]3)C=CC1=C2)NCCCN1CCN(C2=Nc3ccccc3Oc3ccc(Cl)cc32)CC1 [Loxapine-a-2-NB590]
NanoBRET Fold Response (GABBR1; GABBR1, tracer 0.1μM): 1.03
NanoBRET Fold Response (GABBR1; GABBR1, tracer 1μM): 0.92
NanoBRET Fold Response (F2R; F2R, tracer 0.1μM): 0.97
NanoBRET Fold Response (F2R; F2R, tracer 1μM): 1.05
NanoBRET Fold Response (HCRTR2; HCRTR2, tracer 0.1μM): 1.13
NanoBRET Fold Response (HCRTR2; HCRTR2, tracer 1μM): 1.16
NanoBRET Fold Response (NPBWR2; tracer 0.1μM): 1.07
NanoBRET Fold Response (NPBWR2; tracer 1μM): 0.93
NanoBRET Fold Response (PTGER2; tracer 0.1μM): 1.03
NanoBRET Fold Response (PTGER2; tracer 1μM): 1.03
NanoBRET Fold Response (HRH2; HRH2, tracer 0.1μM): 0.79
NanoBRET Fold Response (HRH2; HRH2, tracer 1μM): 1.06
NanoBRET Fold Response (CXCR4; CXCR4, tracer 0.1μM): 1.03
NanoBRET Fold Response (CXCR4; CXCR4, tracer 1μM): 1.03

CN(C)CCC=C1c2ccccc2CCc2ccc(C(=O)NCCNC(=O)CCOCCOCCOCCOCCNC(=O)CCc3ccc4n3[B-](F)(F)[N+]3=C(c5ccc[nH]5)C=CC3=C4)cc21 [Amitriptyline-a-2-NB590]
NanoBRET Fold Response (GABBR1; tracer at 0.1μM): 0.93
NanoBRET Fold Response (GABBR1; tracer at 1μM): 0.91
NanoBRET Fold Response (F2R; tracer at 0.1μM): 0.94
NanoBRET Fold Response (F2R; tracer at 1μM): 0.98
NanoBRET Fold Response (HCRTR2; tracer at 0.1μM): 1.05
NanoBRET Fold Response (HCRTR2; tracer at 1μM): 1.08
NanoBRET Fold Response (HRH2; tracer at 0.1μM): 1.00
NanoBRET Fold Response (HRH2; tracer at 1μM): 0.99
NanoBRET Fold Response (CXCR4; tracer at 0.1μM): 0.89
NanoBRET Fold Response (CXCR4; tracer at 1μM): 1.04

CN(CCC=C1c2ccccc2CCc2ccccc21)C(=O)CCOCCOCCOCCOCCNC(=O)CCc1ccc2n1[B-](F)(F)[N+]1=C(c3ccc[nH]3)C=CC1=C2 [Amitriptyline-e-2-NB590]
NanoBRET Fold Response (GABBR1; tracer at 1μM): 1.09
NanoBRET Fold Response (HRH2; tracer at 1μM): 0.95
NanoBRET Fold Response (CXCR4; tracer at 1μM): 1.15
